Measurements as given in patent US20210369853A1, “TARGETED PROTEASE DEGRADATION PLATFORM” (EUBULUS BIOTHERAPEUTICS INC., priority 2018, published 2021).

What follows are molecules tested on Human Monocytic Leukemia MV4-11 (assay: Cell proliferation experiment (Alarm blue, 72 h, EC50)). Conditions: Homo sapiens, MV4-11, MV4;11 cells.
Format: cell-based
Procedure: (2.1) Cell Proliferation Experiment:
Reagents: RPMI-1640 medium, McCoy's 5A medium, IMDM medium, MEM medium, L-15 medium, fetal bovine serum, Penicillin-Streptomycin double antibody, trypsin, etc., 2-mercaptoethanol, NEAA, pyruvate, etc.
The cells were cultured in conventional ways, and the cells should be passed at least for at least 2 generations before plating. Cells at the logarithmic growth phase are collected, prepared into single cell suspensions and counted. The concentration of cells was adjusted to the desired concentration, and cells were inoculated into a 96-well cell culture plate at 100 μl per well. 100 μL of complete medium of the test compound were added to each well, set up 2 duplicates for each concentration, and diluted with a 5-fold gradient, and continue to culture for 72 h. All cells were subjected to EC50 test for corresponding samples.
The fluorescence intensity of each well was detected using the Alarm blue method, and EC50 was calculated.
EC50 was calculated according to the following formula:
Y=Max+(Min−Max)/[1+(X/EC50)×Slope]
wherein Min, Max and Slope represent the minimum, maximum and slope respectively.
Work on CC[C@@H]1C(=O)N(C)c2cnc(Nc3ccc(C(=O)NC4CCN(CCNCCCCC(=O)Nc5cccc6c5CN(C5CCC(=O)NC5=O)C6=O)CC4)cc3OC)nc2N1C1CCCC1 (stereo partly drawn) [UB-180684] yielded an EC50 of 10 to 100 nM.
Cc1ncsc1-c1ccc(CNC(=O)[C@@H]2C[C@@H](O)CN2C(=O)[C@@H](NC(=O)COCCCNC(=O)[C@]2(Cc3cccc(Nc4nccs4)n3)CC[C@@H](Oc3cccc(Cl)c3F)CC2)C(C)(C)C)cc1 [UB-180585] gave an EC50 of over 1000 nM.
With COc1cc(C(=O)NCCCNCCCCCCCC(=O)Nc2cccc3c2CN(C2CCC(=O)NC2=O)C3=O)ccc1Nc1ncc2c(n1)N(Cc1ccc(Br)cc1)CC(C)(C)C(=O)N2C (stereo not drawn) [UB-180671] the EC50 was 100 to 1000 nM.
With Cc1ncsc1-c1ccc(CNC(=O)[C@@H]2C[C@@H](O)CN2C(=O)[C@@H](NC(=O)COCCNCCn2cc(COCCOCCNC(=O)c3ccc(Nc4ncc5c(n4)-c4ccc(Cl)cc4C(c4c(F)cccc4F)=NC5)cc3)nn2)C(C)(C)C)cc1 [UB-180788] the EC50 was over 1000 nM.
In the case of CC[C@@H]1C(=O)N(C)c2cnc(Nc3ccc(C(=O)NCCC(=O)N[C@H](C(=O)N4C[C@H](O)C[C@H]4C(=O)NCc4ccc(-c5scnc5C)cc4)C(C)(C)C)cc3OC)nc2N1C1CCCC1 [UB-180622], the EC50 is reported as 10 to 100 nM.
Molecule CC[C@@H]1C(=O)N(C)c2cnc(Nc3ccc(C(=O)NCC(=O)Nc4cccc5c4CN(C4CCC(=O)NC4=O)C5=O)cc3OC)nc2N1C1CCCC1 (stereo partly drawn) [UB-180570] has an EC50 of over 1000 nM.
Cc1ncsc1-c1ccc(CNC(=O)[C@@H]2C[C@@H](O)CN2C(=O)[C@@H](NC(=O)COCCCCNC(=O)[C@]2(Cc3cccc(Nc4nccs4)n3)CC[C@@H](Oc3cccc(Cl)c3F)CC2)C(C)(C)C)cc1 [UB-180589] was tested, and the EC50 was over 1000 nM.
For CC[C@@H]1C(=O)N(C)c2cnc(Nc3ccc(C(=O)NCc4cn(CCNCCOCC(=O)Nc5cccc6c5CN(C5CCC(=O)NC5=O)C6=O)nn4)cc3OC)nc2N1Cc1ccc(C#N)s1 (stereo partly drawn) [UB-180765], the EC50 was 10 to 100 nM.
Cc1ncsc1-c1ccc(CNC(=O)[C@@H]2C[C@@H](O)CN2C(=O)[C@@H](NC(=O)CCNCCOCCOCCOCCNC(=O)[C@]2(Cc3cccc(Nc4nccs4)n3)CC[C@@H](Oc3cccc(Cl)c3F)CC2)C(C)(C)C)cc1 [UB-180782] was tested, and the EC50 was over 1000 nM.
CC[C@@H]1C(=O)N(C)c2cnc(Nc3ccc(C(=O)NCCNCCCC(=O)Nc4cccc5c4CN(C4CCC(=O)NC4=O)C5=O)cc3OC)nc2N1Cc1ccc(Br)cc1 (stereo partly drawn) [UB-180690] gave an EC50 of 10 to 100 nM.
In the case of O=C1CCC(N2Cc3c(NC(=O)CNCCOCCOCCNC(=O)c4ccc(Nc5ncc6c(n5)-c5ccc(Cl)cc5C(c5c(F)cccc5F)=NC6)cc4)cccc3C2=O)C(=O)N1 (stereo not drawn) [UB-180809], the EC50 is reported as 100 to 1000 nM.
Molecule CC[C@@H]1C(=O)N(C)c2cnc(Nc3ccc(C(=O)NCCC(=O)Nc4cccc5c4CN(C4CCC(=O)NC4=O)C5=O)cc3OC)nc2N1C1CCCC1 (stereo partly drawn) [UB-180618] has an EC50 of over 1000 nM.
Molecule CC[C@@H]1C(=O)N(C)c2cnc(Nc3ccc(C(=O)NC4CCN(CCOCCNCC(=O)Nc5cccc6c5CN(C5CCC(=O)NC5=O)C6=O)CC4)cc3OC)nc2N1Cc1ccc(C)s1 (stereo partly drawn) [UB-180746] has an EC50 of 10 to 100 nM.
For O=C1CCC(N2Cc3c(NC(=O)CCNCCn4cc(COCCNC(=O)c5ccc(Nc6ncc7c(n6)-c6ccc(Cl)cc6C(c6c(F)cccc6F)=NC7)cc5)nn4)cccc3C2=O)C(=O)N1 (stereo not drawn) [UB-180822], the EC50 was over 1000 nM.
In the case of O=C1CCC(N2Cc3c(NC(=O)COCCOCCOCCNCCNC(=O)c4ccc(Nc5ncc6c(n5)-c5ccc(Cl)cc5C(c5c(F)cccc5F)=NC6)cc4)cccc3C2=O)C(=O)N1 (stereo not drawn) [UB-180794], the EC50 is reported as over 1000 nM.
Work on CC[C@@H]1C(=O)N(C)c2cnc(Nc3ccc(C(=O)NCCOCCNCCC(=O)Nc4cccc5c4CN(C4CCC(=O)NC4=O)C5=O)cc3OC)nc2N1C1CCCC1 (stereo partly drawn) [UB-180696] yielded an EC50 of 10 to 100 nM.
In the case of CC[C@@H]1C(=O)N(C)c2cnc(Nc3ccc(C(=O)NCCOCCOCCOCCNc4cccc5c4CN(C4CCC(=O)NC4=O)C5=O)cc3OC)nc2N1Cc1ccc(Br)cc1 (stereo partly drawn) [UB-180569], the EC50 is reported as 10 to 100 nM.
In the case of CC[C@@H]1C(=O)N(C)c2cnc(Nc3ccc(C(=O)NC4(C(=O)Nc5cccc6c5CN(C5CCC(=O)NC5=O)C6=O)CC4)cc3OC)nc2N1C1CCCC1 (stereo partly drawn) [UB-180571], the EC50 is reported as 100 to 1000 nM.
Cc1ncsc1-c1ccc(CNC(=O)[C@@H]2C[C@@H](O)CN2C(=O)[C@@H](NC(=O)CCNCCn2cc(COCCOCCNC(=O)c3ccc(Nc4ncc5c(n4)-c4ccc(Cl)cc4C(c4c(F)cccc4F)=NC5)cc3)nn2)C(C)(C)C)cc1 [UB-180786] gave an EC50 of over 1000 nM.
Molecule Cc1ncsc1-c1ccc(CNC(=O)[C@@H]2C[C@@H](O)CN2C(=O)[C@@H](NC(=O)CCOCCOCCOCCOCCNC(=O)[C@]2(Cc3cccc(Nc4nccs4)n3)CC[C@@H](Oc3cccc(Cl)c3F)CC2)C(C)(C)C)cc1 [UB-180576] has an EC50 of 100 to 1000 nM.
CC[C@@H]1C(=O)N(C)c2cnc(Nc3ccc(C(=O)NC4CCN(CCNCCOCC(=O)Nc5cccc6c5CN(C5CCC(=O)NC5=O)C6=O)CC4)cc3OC)nc2N1C(C)C (stereo partly drawn) [UB-180712] showed an EC50 of 10 to 100 nM.
Work on CC[C@@H]1C(=O)N(C)c2cnc(Nc3ccc(C(=O)NCCNCC(=O)Nc4cccc5c4CN(C4CCC(=O)NC4=O)C5=O)cc3OC)nc2N1C1CCCC1 (stereo partly drawn) [UB-180694] yielded an EC50 of 100 to 1000 nM.
Molecule Cc1ncsc1-c1ccc(CNC(=O)[C@@H]2C[C@@H](O)CN2C(=O)[C@@H](NC(=O)COCCNC(=O)[C@]2(Cc3cccc(Nc4nccs4)n3)CC[C@@H](Oc3cccc(Cl)c3F)CC2)C(C)(C)C)cc1 [UB-180578] has an EC50 of over 1000 nM.
Cc1ncsc1-c1ccc(CNC(=O)[C@@H]2C[C@@H](O)CN2C(=O)[C@@H](NC(=O)COCCNC(=O)c2ccc(Nc3ncc4c(n3)-c3ccc(Cl)cc3C(c3c(F)cccc3F)=NC4)cc2)C(C)(C)C)cc1 [UB-180532] showed an EC50 of 100 to 1000 nM.
CC[C@@H]1C(=O)N(C)c2cnc(Nc3ccc(C(=O)NCCOCCOCCOCCN(CCC(=O)Nc4cccc5c4CN(C4CCC(=O)NC4=O)C5=O)C(=O)OCc4ccc(NC(=O)[C@H](CCCNC(N)=O)NC(=O)[C@@H](NC(=O)CCCCCN5C(=O)C=CC5=O)C(C)C)cc4)cc3OC)nc2N1C1CCCC1 (stereo partly drawn) [UB-180709] gave an EC50 of 100 to 1000 nM.
Cc1ncsc1-c1ccc(CNC(=O)[C@@H]2C[C@@H](O)CN2C(=O)[C@@H](NC(=O)CCNCCOCCOCCOCCNC(=O)c2ccc(Nc3ncc4c(n3)-c3ccc(Cl)cc3C(c3c(F)cccc3F)=NC4)cc2)C(C)(C)C)cc1 [UB-180780] was tested, and the EC50 was over 1000 nM.
Work on O=C1CCC(N2Cc3c(NC(=O)CCOCCOCCOCCNCCOCCNC(=O)c4ccc(Nc5ncc6c(n5)-c5ccc(Cl)cc5C(c5c(F)cccc5F)=NC6)cc4)cccc3C2=O)C(=O)N1 (stereo not drawn) [UB-180803] yielded an EC50 of 100 to 1000 nM.
Cc1ncsc1-c1ccc(CNC(=O)[C@@H]2C[C@@H](O)CN2C(=O)[C@@H](NC(=O)COCCOCCNC(=O)[C@]2(Cc3cccc(Nc4nccs4)n3)CC[C@@H](Oc3cccc(Cl)c3F)CC2)C(C)(C)C)cc1 [UB-180587] gave an EC50 of over 1000 nM.
Work on CC[C@@H]1C(=O)N(C)c2cnc(Nc3ccc(C(=O)NCCCNCCN(C)CC(=O)Nc4cccc5c4CN(C4CCC(=O)NC4=O)C5=O)cc3OC)nc2N1C1CCCC1 (stereo partly drawn) [UB-180708] yielded an EC50 of 10 to 100 nM.
Molecule O=C1CCC(N2Cc3c(NC(=O)COCCOCCOCCNCCOCCNC(=O)c4ccc(Nc5ncc6c(n5)-c5ccc(Cl)cc5C(c5c(F)cccc5F)=NC6)cc4)cccc3C2=O)C(=O)N1 (stereo not drawn) [UB-180798] has an EC50 of 100 to 1000 nM.
For CC[C@@H]1C(=O)N(C)c2cnc(Nc3ccc(C(=O)NCCOCCOCCOCCNCCCCCC(=O)Nc4cccc5c4CN(C4CCC(=O)NC4=O)C5=O)cc3OC)nc2N1C1CCCC1 (stereo partly drawn) [UB-180649], the EC50 was 10 to 100 nM.
Molecule CC[C@@H]1C(=O)N(C)c2cnc(Nc3ccc(C(=O)NC4CCN(CCOCCNCC(=O)Nc5cccc6c5CN(C5CCC(=O)NC5=O)C6=O)C4)cc3OC)nc2N1C1CCCC1 (stereo partly drawn) [UB-180713] has an EC50 of 10 to 100 nM.
With Cc1ncsc1-c1ccc(CNC(=O)[C@@H]2C[C@@H](O)CN2C(=O)[C@@H](NC(=O)CCCNC(=O)c2ccc(Nc3ncc4c(n3)-c3ccc(Cl)cc3C(c3c(F)cccc3F)=NC4)cc2)C(C)(C)C)cc1 [UB-180505] the EC50 was 100 to 1000 nM.
Cc1ncsc1-c1ccc(CNC(=O)[C@@H]2C[C@@H](O)CN2C(=O)[C@@H](NC(=O)CCOCCOCCNC(=O)c2ccc(Nc3ncc4c(n3)-c3ccc(Cl)cc3C(c3c(F)cccc3F)=NC4)cc2)C(C)(C)C)cc1 [UB-180536] gave an EC50 of 100 to 1000 nM.
In the case of Cc1ncsc1-c1ccc(CNC(=O)[C@@H]2C[C@@H](O)CN2C(=O)[C@@H](NC(=O)COCCOCCOCCNC(=O)c2ccc(Nc3ncc4c(n3)-c3ccc(Cl)cc3C(c3c(F)cccc3F)=NC4)cc2)C(C)(C)C)cc1 [UB-180514], the EC50 is reported as 10 to 100 nM.
O=C1CCC(N2Cc3c(NC(=O)CCCNCCOCCOCCOCCNC(=O)[C@]4(Cc5cccc(Nc6nccs6)n5)CC[C@@H](Oc5cccc(Cl)c5F)CC4)cccc3C2=O)C(=O)N1 (stereo partly drawn) [UB-180779] showed an EC50 of over 1000 nM.
For O=C1CCC(N2Cc3c(NC(=O)COCCOCCOCCNCCNC(=O)[C@]4(Cc5cccc(Nc6nccs6)n5)CC[C@@H](Oc5cccc(Cl)c5F)CC4)cccc3C2=O)C(=O)N1 (stereo partly drawn) [UB-180795], the EC50 was 100 to 1000 nM.
Cc1ncsc1-c1ccc(CNC(=O)[C@@H]2C[C@@H](O)CN2C(=O)[C@@H](NC(=O)CCCNCCn2cc(COCCOCCOCCNC(=O)[C@]3(Cc4cccc(Nc5nccs5)n4)CC[C@@H](Oc4cccc(Cl)c4F)CC3)nn2)C(C)(C)C)cc1 [UB-180790] showed an EC50 of over 1000 nM.
CC[C@@H]1CN(C)c2cnc(Nc3ccc(C(=O)NCCOCCNCCC(=O)Nc4cccc5c4CN(C4CCC(=O)NC4=O)C5=O)cc3OC)nc2N1C(C)C (stereo partly drawn) [UB-180706] was tested, and the EC50 was 100 to 1000 nM.
Work on O=C1CCC(N2Cc3c(NC(=O)COCCNCCOCCOCCOCCNC(=O)c4ccc(Nc5ncc6c(n5)-c5ccc(Cl)cc5C(c5c(F)cccc5F)=NC6)cc4)cccc3C2=O)C(=O)N1 (stereo not drawn) [UB-180792] yielded an EC50 of 100 to 1000 nM.

Same assay, conditions: MV4;11 cells
For O=C1CCC(N2Cc3c(NC(=O)CNCCOCCN4CCN(CCNC(=O)[C@]5(Cc6cccc(Nc7nccs7)n6)CC[C@@H](Oc6cccc(Cl)c6F)CC5)CC4)cccc3C2=O)C(=O)N1 (stereo partly drawn) [UB-180812], the EC50 was 100 to 1000 nM.
With O=C1CCC(N2Cc3c(NC(=O)CCNCCOCCn4cc(CNC(=O)c5ccc(Nc6ncc7c(n6)-c6ccc(Cl)cc6C(c6c(F)cccc6F)=NC7)cc5)nn4)cccc3C2=O)C(=O)N1 (stereo not drawn) [UB-180738] the EC50 was 100 to 1000 nM.
